Results as given in ChEMBL document CHEMBL1909046, “DrugMatrix in vitro pharmacology data”.
Where a SMILES comes first, the peptide text is derived from it. Bridges are numbered along the chain shown (N, C = ends). [ ]: non-standard residue; d: D form. The star is where a group is joined. Threoninol(2S,3R) = C[C@@H](O)[C@H](CO)N*

How the values were obtained:
[1] = target: Tyrosine-protein kinase Fyn (Homo sapiens, UniProt P06241); test: biochemical; assay type: cell-based, Insect cells; conditions: insect cells;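 note: enzymatic inhibition of Fyn kinase activity measured with Poly(Glu:Tyr) as the phosphorylation substrate; in other assays of this panel Not Active means under 50% inhibition at 10 µM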
[2] = target: T1, Muscarinic acetylcholine receptor M4 (Homo sapiens, UniProt P08173); assay type: cell membranes, CHO-K1, Membrane; conditions: cho-k1; note: in other assays of this panel Not Active means under 50% inhibition at 10 µM
T1 sequence (P08173 whole entry): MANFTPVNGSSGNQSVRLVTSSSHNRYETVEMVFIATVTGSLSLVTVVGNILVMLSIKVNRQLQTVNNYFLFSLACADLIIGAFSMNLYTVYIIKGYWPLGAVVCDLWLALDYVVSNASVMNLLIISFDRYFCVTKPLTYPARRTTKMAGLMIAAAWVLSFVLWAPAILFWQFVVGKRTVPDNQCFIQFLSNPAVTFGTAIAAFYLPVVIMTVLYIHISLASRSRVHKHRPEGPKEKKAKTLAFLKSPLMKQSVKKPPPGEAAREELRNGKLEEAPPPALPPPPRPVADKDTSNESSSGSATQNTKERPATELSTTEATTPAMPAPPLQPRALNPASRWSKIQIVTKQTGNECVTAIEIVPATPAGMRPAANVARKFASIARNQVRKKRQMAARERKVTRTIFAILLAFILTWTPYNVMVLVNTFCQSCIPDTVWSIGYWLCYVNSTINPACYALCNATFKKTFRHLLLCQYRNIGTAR

Melanocortin receptor 5 = Melanocortin receptor 5 (Homo sapiens, UniProt P33032); assay type: cell membranes, Membrane; conditions: hek293; note: in other assays of this panel Not Active means under 50% inhibition at 10 µM
Caspase-1 = target: T2, Caspase-1 (Homo sapiens, UniProt P29466); design: species or system Escherichia coli;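 note: Caspase-1 enzyme inhibition assay with a peptide substrate; in other assays of this panel Not Active means under 50% inhibition at 10 µM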
T2 sequence (P29466 whole entry): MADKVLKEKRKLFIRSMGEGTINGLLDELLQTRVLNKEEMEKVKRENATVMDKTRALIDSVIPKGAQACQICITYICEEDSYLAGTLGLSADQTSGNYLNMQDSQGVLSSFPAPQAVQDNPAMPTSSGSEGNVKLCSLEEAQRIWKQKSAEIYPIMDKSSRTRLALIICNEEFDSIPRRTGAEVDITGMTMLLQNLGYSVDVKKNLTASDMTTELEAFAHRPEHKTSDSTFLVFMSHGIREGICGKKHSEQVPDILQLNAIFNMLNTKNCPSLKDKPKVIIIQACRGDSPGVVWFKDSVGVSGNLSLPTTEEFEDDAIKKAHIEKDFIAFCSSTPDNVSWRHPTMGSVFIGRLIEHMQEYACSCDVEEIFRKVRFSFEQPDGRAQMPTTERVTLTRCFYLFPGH

[3] = target: T3, Alpha-1A adrenergic receptor (Rattus norvegicus, UniProt P43140); test: DRUGMATRIX: Alpha-1A adrenergic receptor radioligand binding (ligand: prazosin); assay type: cell membranes, Wistar, Submaxillary gland, Membrane; conditions: Not Active = under 50% inhibition at 10 µM
T3 sequence (P43140 whole entry): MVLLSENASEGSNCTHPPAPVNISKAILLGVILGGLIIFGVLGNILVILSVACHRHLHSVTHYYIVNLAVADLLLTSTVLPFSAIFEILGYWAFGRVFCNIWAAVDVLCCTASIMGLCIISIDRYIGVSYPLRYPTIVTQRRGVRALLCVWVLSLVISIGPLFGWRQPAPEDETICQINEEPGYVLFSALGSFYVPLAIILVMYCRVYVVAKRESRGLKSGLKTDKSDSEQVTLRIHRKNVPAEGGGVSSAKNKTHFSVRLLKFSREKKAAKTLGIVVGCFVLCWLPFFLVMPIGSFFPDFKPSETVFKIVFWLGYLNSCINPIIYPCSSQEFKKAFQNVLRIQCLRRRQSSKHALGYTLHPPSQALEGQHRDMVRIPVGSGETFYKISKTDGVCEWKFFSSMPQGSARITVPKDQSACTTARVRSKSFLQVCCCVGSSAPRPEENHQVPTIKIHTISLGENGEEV

B2 bradykinin receptor = target: T4, B2 bradykinin receptor (Homo sapiens, UniProt P30411); assay type: cell membranes, Membrane; conditions: chem-1; note: in other assays of this panel Not Active means under 50% inhibition at 10 µM
T4 sequence (P30411 whole entry): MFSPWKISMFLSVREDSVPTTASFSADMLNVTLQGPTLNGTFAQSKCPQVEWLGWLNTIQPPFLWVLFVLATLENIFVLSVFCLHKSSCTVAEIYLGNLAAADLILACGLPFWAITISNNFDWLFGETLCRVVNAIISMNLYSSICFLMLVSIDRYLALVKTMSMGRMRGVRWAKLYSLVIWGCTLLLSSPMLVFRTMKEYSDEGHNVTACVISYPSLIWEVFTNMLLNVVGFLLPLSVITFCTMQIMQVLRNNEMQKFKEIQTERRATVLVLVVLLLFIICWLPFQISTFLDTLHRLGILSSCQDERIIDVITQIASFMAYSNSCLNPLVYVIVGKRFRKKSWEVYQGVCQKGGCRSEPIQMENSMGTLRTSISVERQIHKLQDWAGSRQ

Sequence of Tyrosine-protein kinase Fyn (P06241 whole entry): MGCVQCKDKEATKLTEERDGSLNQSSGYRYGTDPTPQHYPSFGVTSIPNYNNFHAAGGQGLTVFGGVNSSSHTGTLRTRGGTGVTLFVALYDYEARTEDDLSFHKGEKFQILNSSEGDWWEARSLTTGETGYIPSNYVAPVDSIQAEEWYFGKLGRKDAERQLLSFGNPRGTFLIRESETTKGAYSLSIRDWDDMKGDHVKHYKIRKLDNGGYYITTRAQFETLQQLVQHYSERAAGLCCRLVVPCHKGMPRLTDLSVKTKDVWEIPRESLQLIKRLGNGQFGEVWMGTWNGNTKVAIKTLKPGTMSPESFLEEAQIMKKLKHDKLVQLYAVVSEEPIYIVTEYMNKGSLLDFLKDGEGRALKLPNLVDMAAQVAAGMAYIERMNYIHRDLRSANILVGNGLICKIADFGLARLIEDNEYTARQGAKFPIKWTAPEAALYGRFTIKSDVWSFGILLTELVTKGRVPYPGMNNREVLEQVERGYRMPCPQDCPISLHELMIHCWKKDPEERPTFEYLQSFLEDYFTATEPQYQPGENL
Sequence of Melanocortin receptor 5 (P33032 whole entry): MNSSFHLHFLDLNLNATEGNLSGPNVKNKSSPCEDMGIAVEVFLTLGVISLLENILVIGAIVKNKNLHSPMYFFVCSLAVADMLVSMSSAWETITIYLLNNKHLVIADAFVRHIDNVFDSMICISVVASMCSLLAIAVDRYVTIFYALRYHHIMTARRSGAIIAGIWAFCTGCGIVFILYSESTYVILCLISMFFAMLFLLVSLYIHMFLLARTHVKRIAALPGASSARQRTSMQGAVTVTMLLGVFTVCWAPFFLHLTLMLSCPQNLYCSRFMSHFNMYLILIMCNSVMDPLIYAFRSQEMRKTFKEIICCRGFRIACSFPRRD

COc1ccccc1C(=O)N1CCC(Cc2ccccc2)CC1
Not Active: IC50 [1] | IC50 [2] | IC50 (Melanocortin receptor 5) | IC50 (Caspase-1) | IC50 [3] | IC50 (B2 bradykinin receptor)

Cc1ccccc1C(=O)N1CCC(Cc2ccccc2)CC1
Not Active: IC50 [1] | IC50 [2] | IC50 (Melanocortin receptor 5) | IC50 (Caspase-1) | IC50 [3] | IC50 (B2 bradykinin receptor)

O=C1CC[C@H](N2C(=O)c3ccccc3C2=O)C(=O)N1
Not Active: IC50 [1] | IC50 [2] | IC50 (Melanocortin receptor 5) | IC50 (Caspase-1) | IC50 [3] | IC50 (B2 bradykinin receptor)

N=C(Nc1ccccc1)Nc1ccccc1
Not Active: IC50 [1] | IC50 [2] | IC50 (Melanocortin receptor 5) | IC50 (Caspase-1) | IC50 [3] | IC50 (B2 bradykinin receptor)

C[C@@H](O)[C@H](CO)NC(=O)[C@@H]1CSSC[C@H](NC(=O)[C@H](N)Cc2ccccc2)C(=O)N[C@@H](Cc2ccccc2)C(=O)N[C@H](Cc2c[nH]c3ccccc23)C(=O)N[C@@H](CCCCN)C(=O)N[C@@H]([C@@H](C)O)C(=O)N1 (H-[dF]CF[dW]KTC-{Threoninol(2S,3R)}; disulfide 2-7)
Not Active: IC50 [1] | IC50 [2] | IC50 (Melanocortin receptor 5) | IC50 (Caspase-1) | IC50 [3] | IC50 (B2 bradykinin receptor)

S=C=Nc1cccc2ccccc12 [1-NAPHTHYLISOTHIOCYANATE]
Not Active: IC50 [1] | IC50 [2] | IC50 (Melanocortin receptor 5) | IC50 (Caspase-1) | IC50 [3] | IC50 (B2 bradykinin receptor)

C[C@](O)(CS(=O)(=O)c1ccc(F)cc1)C(=O)Nc1ccc(C#N)c(C(F)(F)F)c1 [(R)-BICALUTAMIDE]
Not Active: IC50 [1] | IC50 [2] | IC50 (Melanocortin receptor 5) | IC50 (Caspase-1) | IC50 [3] | IC50 (B2 bradykinin receptor)

CCCC(=O)Nc1ccc(OCC(O)CNC(C)C)c(C(C)=O)c1 (stereo not drawn) [ACEBUTOLOL]
Not Active: IC50 [1] | IC50 [2] | IC50 (Melanocortin receptor 5) | IC50 (Caspase-1) | IC50 [3] | IC50 (B2 bradykinin receptor)

CC(=O)Nc1ccc(O)cc1 [ACETAMINOPHEN]
Not Active: IC50 [1] | IC50 [2] | IC50 (Melanocortin receptor 5) | IC50 (Caspase-1) | IC50 [3] | IC50 (B2 bradykinin receptor)

COc1cc2c(c3oc(=O)c4c(c13)CCC4=O)[C@@H]1C=CO[C@@H]1O2 [AFLATOXIN]
Not Active: IC50 [1] | Ki [1] | IC50 [2] | Ki [2] | IC50 (Melanocortin receptor 5) | Ki (Melanocortin receptor 5) | IC50 (Caspase-1) | Ki (Caspase-1) | IC50 [3] | Ki [3] | IC50 (B2 bradykinin receptor) | Ki (B2 bradykinin receptor)

N=C(N)NC(=O)c1nc(Cl)c(N)nc1N [AMILORIDE]
Not Active: IC50 [1] | IC50 [2] | IC50 (Melanocortin receptor 5) | IC50 (Caspase-1) | IC50 [3] | IC50 (B2 bradykinin receptor)

Cc1cc(=O)n(-c2ccccc2)n1C [ANTIPYRINE]
Not Active: IC50 [1] | IC50 [2] | IC50 (Melanocortin receptor 5) | IC50 (Caspase-1) | IC50 [3] | IC50 (B2 bradykinin receptor)

CN1C(=O)COc2c(C(=O)NC3CN4CCC3CC4)cc(Cl)cc21 (stereo not drawn) [AZASETRON]
Not Active: IC50 [1] | IC50 [2] | IC50 (Melanocortin receptor 5) | IC50 (Caspase-1) | IC50 [3] | IC50 (B2 bradykinin receptor)

C[C@H]1C[C@H]2[C@@H]3CCC4=CC(=O)C=C[C@]4(C)[C@@]3(Cl)[C@@H](O)C[C@]2(C)[C@@]1(O)C(=O)CO [BECLOMETHASONE]
Not Active: IC50 [1] | IC50 [2] | IC50 (Melanocortin receptor 5) | IC50 (Caspase-1) | IC50 [3] | IC50 (B2 bradykinin receptor)

CCOC(=O)[C@H](CCc1ccccc1)N[C@H]1CCc2ccccc2N(CC(=O)O)C1=O [BENAZEPRIL]
Not Active: IC50 [1] | IC50 [2] | IC50 (Melanocortin receptor 5) | IC50 (Caspase-1) | IC50 [3] | IC50 (B2 bradykinin receptor)

Nc1c(CC(=O)O)cccc1C(=O)c1ccc(Br)cc1 [BROMFENAC]
Not Active: IC50 [1] | IC50 [2] | IC50 (Melanocortin receptor 5) | IC50 (Caspase-1) | IC50 [3] | IC50 (B2 bradykinin receptor)

CCCCN1CCCCC1C(=O)Nc1c(C)cccc1C.Cl (stereo not drawn) [BUPIVACAINE HYDROCHLORIDE]
Not Active: IC50 [1] | IC50 [2] | IC50 (Melanocortin receptor 5) | IC50 (Caspase-1) | IC50 [3] | IC50 (B2 bradykinin receptor)

O=C1CC2(CCCC2)CC(=O)N1CCCCN1CCN(c2ncccn2)CC1 [BUSPIRONE]
Not Active: IC50 [1] | IC50 [2] | IC50 (Melanocortin receptor 5) | IC50 (Caspase-1) | IC50 (B2 bradykinin receptor)

C[C@@]12C(=O)OC(=O)[C@]1(C)[C@H]1CC[C@@H]2O1 [CANTHARIDIN]
Not Active: IC50 [1] | IC50 [2] | IC50 (Melanocortin receptor 5) | IC50 (Caspase-1) | IC50 [3] | IC50 (B2 bradykinin receptor)

O=NN(CCCl)C(=O)NCCCl [CARMUSTINE]
Not Active: IC50 [1] | IC50 [2] | IC50 (Melanocortin receptor 5) | IC50 (Caspase-1) | IC50 [3] | IC50 (B2 bradykinin receptor)

CC1=C(C(=O)O)N2C(=O)[C@@H](NC(=O)[C@H](N)c3ccccc3)[C@H]2SC1 [CEPHALEXIN ANHYDROUS]
Not Active: IC50 [1] | IC50 [2] | IC50 (Melanocortin receptor 5) | IC50 (Caspase-1) | IC50 [3] | IC50 (B2 bradykinin receptor)

O=C(N[C@H](CO)[C@H](O)c1ccc([N+](=O)[O-])cc1)C(Cl)Cl [CHLORAMPHENICOL]
Not Active: IC50 [1] | IC50 [2] | IC50 (Melanocortin receptor 5) | IC50 (Caspase-1) | IC50 [3] | IC50 (B2 bradykinin receptor)

ClC(Cl)Cl [CHLOROFORM]
Not Active: IC50 [1] | IC50 [2] | IC50 (Melanocortin receptor 5) | IC50 (Caspase-1) | IC50 [3] | IC50 (B2 bradykinin receptor)

C=C1CC[C@H](O)C/C1=C/C=C1\CCC[C@]2(C)[C@@H]([C@H](C)CCCC(C)C)CC[C@@H]12 [CHOLECALCIFEROL]
Not Active: IC50 [1] | IC50 [2] | IC50 (Melanocortin receptor 5) | IC50 (Caspase-1) | IC50 [3] | IC50 (B2 bradykinin receptor)

C[N+](C)(C)CCO.[Cl-] [CHOLINE CHLORIDE]
Not Active: IC50 [1] | IC50 [2] | IC50 (Melanocortin receptor 5) | IC50 (Caspase-1) | IC50 [3] | IC50 (B2 bradykinin receptor)

CCOC(=O)C(C)(C)Oc1ccc(Cl)cc1 [CLOFIBRATE]
Not Active: IC50 [1] | IC50 [2] | IC50 (Melanocortin receptor 5) | IC50 (Caspase-1) | IC50 [3] | IC50 (B2 bradykinin receptor)

CC(=O)OCC(=O)[C@@]1(O)CC[C@H]2[C@@H]3CCC4=CC(=O)CC[C@]4(C)[C@H]3C(=O)C[C@@]21C [CORTISONE ACETATE]
Not Active: IC50 [1] | IC50 [2] | IC50 (Melanocortin receptor 5) | IC50 (Caspase-1) | IC50 [3] | IC50 (B2 bradykinin receptor)

O=c1ccc2ccccc2o1 [COUMARIN]
Not Active: IC50 [1] | IC50 [2] | IC50 (Melanocortin receptor 5) | IC50 (Caspase-1) | IC50 [3] | IC50 (B2 bradykinin receptor)

OC(CCN1CCCCC1)(c1ccccc1)C1CCCCC1 (stereo not drawn) [TRIHEXYPHENIDYL]
Not Active: IC50 [1] | IC50 (Melanocortin receptor 5) | IC50 (Caspase-1) | IC50 [3] | IC50 (B2 bradykinin receptor)
